Test system: arthritis in gp130^F759/F759 mice
Assay: Screening test for anti-arthritis agents in gp130F759/F759 mice
Type: in vivo, mouse
Settings: for arthritis score: gp130^F759/F759 mice developing arthritis, methotrexate 0.4 mg/kg orally five days in a week from age of 9 months
Experimental: gp130^F759/F759 mice or mice obtained by backcrossing of the gp130^F759/F759 mice (gp130^F759/F759-related mice) were used as a model mouse. A test compound of antirheumatic drugs such as bucilamine and methotrexate, nonsteroidal anti-inflammatory drugs such as diclofenac, or steroidal drugs such as dexamethasone was administered. The administration was conducted before the onset of immune disorders or arthritis for screening of prophylactic drugs, whereas after the observation of visible arthritis for screening of therapeutic drugs. The following is to illustrate the screening test for anti-arthritic agents using methotrexate as a test compound, and screening tests for other compounds would be conducted according to a similar manner to the following.
Methotrexate was administered orally at a dose of 0.4 mg/kg to the mice at the aged of 9 months for five days in a week. […] The severity of arthritis was scored based on restricted range of motion, swelling and flare of digit joints, and the presence or absence of rigidity. The mice whose arthritis conditions were observed constantly for two weeks or more were estimated as developed animal, and incident and severity were determined with time course.

CN(Cc1cnc2nc(N)nc(N)c2n1)c1ccc(C(=O)N[C@@H](CCC(=O)O)C(=O)O)cc1 [methotrexate]
arthritis score (aged 48 weeks (12-month-old), control 4.33±1.86): 1.33±0.33 | arthritis score (aged 53 weeks, control 4.67±0.67): 0.67±0.33 | effect on arthritis in the mouse model (gp130^F759/F759 mice, 0.4 mg/kg orally): inhibits the arthritis
